Test results from ChEMBL document CHEMBL1201862, “PubChem BioAssay data set” (2004).
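Dose response: 5 concentrations. Exposure: 48 h. Format: 96-well plates. Endpoint: linear interpolation; highest concentration if not reached. Here, GI50 denotes the concentration required for 50% inhibition of growth.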 The source made the active and inactive calls. Rule as the data show it: active = GI50 up to about 1.1 µM and inactive = higher.

Key:
Experiment in all cases: inhibition of tumour cell growth, NCI panel, 48 h
[1] = system: 786-0
[2] = system: A498
[3] = system: A549
[4] = system: ACHN
[5] = system: COLO 205
[6] = system: DU-145
[7] = system: EKVX
[8] = system: HCT-116
[9] = system: HCT-15
[10] = system: HL-60
[11] = system: HOP-62
[12] = system: HOP-92
[13] = system: HT-29
[14] = system: Hs-578T
[15] = system: IGROV-1
[16] = system: K562
[17] = system: KM12
[18] = system: LOX IMVI
[19] = system: M14
[20] = system: MCF7
[21] = system: MDA-MB-231
[22] = system: MDA-MB-435
[23] = system: MDA-N
[24] = system: MOLT-4
[25] = system: Malme-3M
[26] = system: NCI-H226
[27] = system: NCI-H23
[28] = system: NCI-H522
[29] = system: NCI/ADR-RES
[30] = system: OVCAR-3
[31] = system: OVCAR-4
[32] = system: OVCAR-5
[33] = system: OVCAR-8
[34] = system: PC-3
[35] = system: RPMI-8226
[36] = system: SF-268
[37] = system: SF-295
[38] = system: SK-MEL-28
[39] = system: SK-MEL-2
[40] = system: SK-MEL-5
[41] = system: SK-OV-3
[42] = system: SN12C
[43] = system: SNB-19
[44] = system: SNB-75
[45] = system: SR
[46] = system: SW-620
[47] = system: TK-10
[48] = system: U-251
[49] = system: UACC-62
[50] = system: UO-31

In the case of `NC(=O)CCC(NC(=O)c1cccc2c(=O)c3ccccc3[nH]c12)C(=O)O` (stereo not given), the GI50 [1] is reported as > 100 µM (inactive), the GI50 [2] is reported as > 100 µM (inactive) and the GI50 [3] is reported as > 100 µM (inactive). The GI50 [4] was > 100 µM (inactive), the GI50 [5] was > 100 µM (inactive) and the GI50 [6] was > 100 µM (inactive). The GI50 [7] was > 100 µM (inactive), the GI50 [8] was > 100 µM (inactive) and the GI50 [9] was > 100 µM. The GI50 [10] was > 100 µM (inactive), the GI50 [11] was > 100 µM (inactive) and the GI50 [12] was 77.3 µM (inactive). The GI50 [13] was > 100 µM (inactive), the GI50 [14] was > 100 µM (inactive) and the GI50 [15] was > 100 µM (inactive). For the same compound, the GI50 [16] was > 100 µM (inactive), the GI50 [17] was > 100 µM (inactive) and the GI50 [18] was > 100 µM (inactive). The GI50 [19] was > 100 µM (inactive), the GI50 [20] was > 100 µM (inactive) and the GI50 [21] was > 100 µM (inactive). For the same compound, the GI50 [22] was > 100 µM (inactive), the GI50 [23] was > 100 µM (inactive) and the GI50 [24] was > 100 µM (inactive). The GI50 [25] was > 100 µM (inactive), the GI50 [26] was > 100 µM (inactive) and the GI50 [27] was > 100 µM (inactive). For the same compound, the GI50 [28] was > 100 µM (inactive), the GI50 [29] was > 100 µM (inactive) and the GI50 [30] was > 100 µM (inactive). The GI50 [31] was > 100 µM (inactive), the GI50 [32] was > 100 µM (inactive) and the GI50 [33] was > 100 µM (inactive). The GI50 [34] was > 100 µM (inactive), the GI50 [35] was > 100 µM (inactive) and the GI50 [36] was > 100 µM (inactive). For the same compound, the GI50 [37] was > 100 µM (inactive), the GI50 [38] was > 100 µM (inactive) and the GI50 [39] was > 100 µM (inactive). The GI50 [40] was > 100 µM (inactive), the GI50 [41] was > 100 µM (inactive) and the GI50 [42] was > 100 µM (inactive). The GI50 [43] was > 100 µM (inactive), the GI50 [44] was > 100 µM (inactive) and the GI50 [45] was > 100 µM (inactive). The GI50 [46] was > 100 µM (inactive), the GI50 [47] was > 100 µM (inactive) and the GI50 [48] was > 100 µM (inactive). The GI50 [49] was > 100 µM (inactive) and the GI50 [50] was > 100 µM (inactive).
